In paper PMC2362650, “Phase I and pharmacokinetic study of the topoisomerase II catalytic inhibitor fostriecin” (British Journal of Cancer, 1999):

Assay: Phase I study: toxicity graded with NCI common toxicity criteria in patients
Type: in vivo, human
From the text: Fostriecin (CI-920) is a topoisomerase (topo) II catalytic activity inhibitor (Boritzki et al, 1988) (Figure 1). This novel class of topo II-targeting drugs is considered of potential value for treatment of patients with tumours resistant to classic topo II poisons, including anthracyclines and podophyllotoxins (Cummings and Smyth, 1993). The nuclear enzyme topo II is essential for the regulation of DNA conformation (reviewed in Osheroff et al, 1991). Central in its action is the formation of a complex with DNA. Stabilization of this complex by topo II poisons induces DNA damage and cell death (Froelich-Ammon and Osheroff, 1995). Decreased complex formation due to decreased topo II levels is considered to be an important mechanism of tumour-resistance to topo II poisons (Beck and Danks, 1991). The topo II catalytic inhibitor fostriecin is expected to have increased activity against tumour cells with low topo II levels and this was confirmed in in vitro studies (De Jong et al, 1991). […] Because of increased toxi- city of fostriecin in dogs compared to mice, a dose below one-third of the one-tenth mouse equivalent LD10, 2 mg m-2 day-1, was chosen as starting dose in humans (Clinical Brochure Fostriecin, 1991). […] We also performed an analysis of the human pharmacokinetics of fostriecin and ex vivo experiments to investigate if the plasma drug concentrations achieved were sufficient to inhibit a tenipo- side-resistant tumour cell line. The maximum tolerated dose (MTD) of fostriecin could not be established because drug supply was stopped prematurely. However, results of this study may provide a basis for continued clinical development of this agent. PATIENTS AND METHODS Patient selection, drug administration and evaluation Patient eligibility criteria were: histologically confirmed diagnosis of a solid tumour, no longer amenable to established forms of treatment; age 18-75 years; Eastern Cooperative Oncology Group (ECOG) performance status 2; life expectancy 12 weeks; no Phase I and pharmacokinetic study of the topoisomerase II catalytic inhibitor fostriecin RS de Jong1, NH Mulder1, DRA Uges2, DTh Sleijfer1, FJP Hoppener4, HJM Groen3, PHB Willemse1, WTA van der Graaf1 and EGE de Vries1 Departments of 1Medical Oncology, 2Pharmacy and Toxicology, and 3Pulmonary Diseases, University Hospital Groningen, The Netherlands; 4EORTC New Drug Development Office, Amsterdam, The Netherlands Summary We conducted a phase I and pharmacokinetic study of the topoisomerase II catalytic inhibitor fostriecin. Fostriecin was administered intravenously over 60 min on days 1-5 at 4-week intervals. Dose was escalated from 2 mg m-2 day-1 to 20 mg m-2 day-1 in 20 patients. Drug pharmacokinetics was analysed with high performance liquid chromatography with UV-detection. Plasma collected during drug administration was tested in vitro for growth inhibition of a teniposide-resistant small-cell lung cancer (SCLC) cell line. The predominant toxicities were elevated liver transaminases (maximum common toxicity criteria (CTC) grade 4) and serum creatinine (maximum CTC grade 2). […] Duration of elevated alanine-amino transferase (ALT) was dose-limiting in one patient at 20 mg m-2. Other frequent toxicities were grade 1-2 nausea/vomiting, fever and mild fatigue. […] A metabolite, most probably dephosphorylated fostriecin, was detected in plasma and urine. […] However, further escalation seems possible and is warranted to achieve potentially effective drug levels. Fostriecin has a short plasma half-life and longer duration of infusion should be considered. […]

[1] = 4 mg m-2, 5 patients/11 courses
[2] = 6.6 mg m-2, 3 patients/4 courses
[3] = 10 mg m-2, 3 patients/7 courses

## C[C@@](O)(/C=C/[C@H]1CC=CC(=O)O1)[C@@H](C[C@@H](O)\C=C/C=C\C=C\CO)OP(=O)(O)O [fostriecin]
2 mg m-2, 4 patients/8 courses
  CTC-grade 1 ALP: courses causing toxicity, all full-dose courses: 2
  CTC-grade 1 ALP: patients developing toxicity in first course: 1
  CTC-grade 1 ALT: courses causing toxicity, all full-dose courses: 6
  CTC-grade 1 ALT: patients developing toxicity in first course: 2
  CTC-grade 1 AST: courses causing toxicity, all full-dose courses: 2
  CTC-grade 1 AST: patients developing toxicity in first course: 2
  CTC-grade 1 GGT: courses causing toxicity, all full-dose courses: 2
  CTC-grade 1 GGT: patients developing toxicity in first course: 0
  CTC-grade 1 creatinine: courses causing toxicity, all full-dose courses: 4
  CTC-grade 1 creatinine: patients developing toxicity in first course: 2
  CTC-grade 2 ALT: courses causing toxicity, all full-dose courses: 1
  CTC-grade 2 ALT: patients developing toxicity in first course: 1
  CTC-grade 2 GGT: courses causing toxicity, all full-dose courses: 2
  CTC-grade 2 GGT: patients developing toxicity in first course: 1
[1]
  CTC-grade 1 ALP: courses causing toxicity, all full-dose courses: 3
  CTC-grade 1 ALP: patients developing toxicity in first course: 3
  CTC-grade 1 ALT: courses causing toxicity, all full-dose courses: 8
  CTC-grade 1 ALT: patients developing toxicity in first course: 4
  CTC-grade 1 AST: courses causing toxicity, all full-dose courses: 7
  CTC-grade 1 AST: patients developing toxicity in first course: 3
  CTC-grade 1 GGT: courses causing toxicity, all full-dose courses: 1
  CTC-grade 1 GGT: patients developing toxicity in first course: 1
  CTC-grade 1 creatinine: courses causing toxicity, all full-dose courses: 7
  CTC-grade 1 creatinine: patients developing toxicity in first course: 3
  CTC-grade 2 ALP: courses causing toxicity, all full-dose courses: 1
  CTC-grade 2 ALP: patients developing toxicity in first course: 0
  CTC-grade 2 ALT: courses causing toxicity, all full-dose courses: 1
  CTC-grade 2 ALT: patients developing toxicity in first course: 0
  CTC-grade 2 AST: courses causing toxicity, all full-dose courses: 1
  CTC-grade 2 AST: patients developing toxicity in first course: 1
  CTC-grade 2 GGT: courses causing toxicity, all full-dose courses: 0
  CTC-grade 2 GGT: patients developing toxicity in first course: 0
  CTC-grade 3 ALT: courses causing toxicity, all full-dose courses: 2
  CTC-grade 3 ALT: patients developing toxicity in first course: 1
  CTC-grade 3 AST: courses causing toxicity, all full-dose courses: 1
  CTC-grade 3 AST: patients developing toxicity in first course: 0
  CTC-grade 3 GGT: courses causing toxicity, all full-dose courses: 4
  CTC-grade 3 GGT: patients developing toxicity in first course: 1
[2]
  CTC-grade 1 ALP: courses causing toxicity, all full-dose courses: 3
  CTC-grade 1 ALP: patients developing toxicity in first course: 0
  CTC-grade 1 ALT: courses causing toxicity, all full-dose courses: 2
  CTC-grade 1 ALT: patients developing toxicity in first course: 2
  CTC-grade 1 AST: courses causing toxicity, all full-dose courses: 0
  CTC-grade 1 AST: patients developing toxicity in first course: 0
  CTC-grade 1 GGT: courses causing toxicity, all full-dose courses: 0
  CTC-grade 1 GGT: patients developing toxicity in first course: 0
  CTC-grade 1 creatinine: courses causing toxicity, all full-dose courses: 1
  CTC-grade 1 creatinine: patients developing toxicity in first course: 1
  CTC-grade 2 ALP: courses causing toxicity, all full-dose courses: 1
  CTC-grade 2 ALP: patients developing toxicity in first course: 0
  CTC-grade 2 ALT: courses causing toxicity, all full-dose courses: 1
  CTC-grade 2 ALT: patients developing toxicity in first course: 1
  CTC-grade 2 AST: courses causing toxicity, all full-dose courses: 1
  CTC-grade 2 AST: patients developing toxicity in first course: 1
  CTC-grade 2 GGT: courses causing toxicity, all full-dose courses: 0
  CTC-grade 2 GGT: patients developing toxicity in first course: 0
  CTC-grade 2 bilirubin: courses causing toxicity, all full-dose courses: 1
  CTC-grade 2 bilirubin: patients developing toxicity in first course: 1
  CTC-grade 3 ALT: courses causing toxicity, all full-dose courses: 1
  CTC-grade 3 ALT: patients developing toxicity in first course: 0
  CTC-grade 3 AST: courses causing toxicity, all full-dose courses: 2
  CTC-grade 3 AST: patients developing toxicity in first course: 1
  CTC-grade 3 GGT: courses causing toxicity, all full-dose courses: 1
  CTC-grade 3 GGT: patients developing toxicity in first course: 1
[3]
  CTC-grade 1 ALP: courses causing toxicity, all full-dose courses: 1
  CTC-grade 1 ALP: patients developing toxicity in first course: 1
  CTC-grade 1 ALT: courses causing toxicity, all full-dose courses: 0
  CTC-grade 1 ALT: patients developing toxicity in first course: 0
  CTC-grade 1 AST: courses causing toxicity, all full-dose courses: 3
  CTC-grade 1 AST: patients developing toxicity in first course: 0
  CTC-grade 1 GGT: courses causing toxicity, all full-dose courses: 6
  CTC-grade 1 GGT: patients developing toxicity in first course: 2
  CTC-grade 1 creatinine: courses causing toxicity, all full-dose courses: 3
  CTC-grade 1 creatinine: patients developing toxicity in first course: 2
  CTC-grade 2 ALT: courses causing toxicity, all full-dose courses: 3
  CTC-grade 2 ALT: patients developing toxicity in first course: 0
  CTC-grade 2 AST: courses causing toxicity, all full-dose courses: 1
  CTC-grade 2 AST: patients developing toxicity in first course: 1
  CTC-grade 2 GGT: courses causing toxicity, all full-dose courses: 0
  CTC-grade 2 GGT: patients developing toxicity in first course: 0
  CTC-grade 2 creatinine: courses causing toxicity, all full-dose courses: 4
  CTC-grade 2 creatinine: patients developing toxicity in first course: 1
  CTC-grade 3 ALT: courses causing toxicity, all full-dose courses: 2
  CTC-grade 3 ALT: patients developing toxicity in first course: 2
  CTC-grade 3 GGT: courses causing toxicity, all full-dose courses: 1
  CTC-grade 3 GGT: patients developing toxicity in first course: 1
